From patent US11219221B2 (FarmHannong Co., Ltd., priority 2017, dated 2022)
pIC50: −log10 of the molar value.

Experiments:
[1] = tested on: transgenic A. thaliana (CyPPO16, CyPPO17 and variants); experiment: Herbicide spray test on Arabidopsis (T1); type: in vivo, Arabidopsis thaliana; conditions: 1 μM spray (100 ml, 0.24 m^2), 4-week-old T1 plants
Text: A. thaliana was transformed with a binary vector having ORF of a selectable marker, Bar gene (glufosinate-tolerant gene), and ORF of each mutant gene of CyPPO16 and CyPPO17. The transgenic plant was examined for cross-tolerance towards glufosinate and PPO-inhibiting herbicides. The bar gene was also used to examine whether the transgene was stably inherited during generations. NOS promoter and E9 terminator were used for bar gene expression.
In order to express proteins of CyPPO16, CyPPO16 variants, CyPPO17, and CyPPO17 variants in plants, a CaMV35S promoter and a NOS terminator were used. Encoding genes of CyPPO16, CyPPO16 variants, CyPPO17, and CyPPO17 variants were introduced into binary vector using Xhol and BamHI restriction enzymes. Furthermore, for confirmation of the protein expression, hemagglutinin (HA) tag was fused to the C-terminal region of PPO protein coding gene using BamHI and Sad restriction enzymes. In addition, in order to transit protein to chloroplast, transit peptide (TP) gene (SEQ ID NO: 90) of AtPPO1 gene (SEQ ID NO: 89) was fused to N-terminal region of PPO protein coding gene using Xbal and Xhol restriction enzymes.
Transgenic plants were screened with glufosinate tolerance which was conferred by Bar gene expression in the binary vector. […]

[2] = target: Thermosynechococcus sp. NK55a PPO CyPPO17 (SEQ ID NO: 3) variant L326T (MBP fusion); experiment: PPO enzyme inhibition (IC50), MBP-fused PPO; type: biochemical; conditions: 50 μM protoporphyrinogen IX, pH 8.0, room temperature, 30 min
Procedure: (§1) Thus, PPO proteins of wild type and variants were expressed as fused to MBP and were used for experiments.
(§2) The following process for purification of PPO protein was performed in a 4° C. cold room. Amylose resin (NEB) was packed to 1.5×15 cm column (Bio-Rad, Econo Columns 1.5×15 cm, glass chromatography column, max. vol), and the obtained protein extracts were loaded to the column at a flow rate of 0.2 ml/min. The column was washed with 3 column volumes of buffer and the presence of protein in the washing solution was examined. When the protein was no longer detected, the washing procedure was terminated. Then, the MBP-PPO protein was eluted with approximately 2 column volumes of buffer containing 20 mM maltose. The protein concentration of each eluent was determined and the elution was stopped when the protein was no longer detected. Ten microliter of each fraction was investigated for protein quantification and SDS-PAGE analysis. The highly pure fractions of PPO protein variants were used for the enzyme assay.
(§3) Overall process was performed in dark under nitrogen stream. […] of protoporphyrin IX was dissolved in 20 ml of 20% (v/v) EtOH, and stirred under dark condition for 30 minutes. The obtained protoporphyrin IX solution was put into a 15 ml screw tube in an amount of 800 μl, and flushed with nitrogen gas for 5 minutes. To this, 1.5 g of sodium amalgam was added and vigorously shaken for 2 minutes. The lid was opened to exhaust hydrogen gas in the tube. Thereafter, the lid was closed and incubated for 3 minutes. […] To determine the enzyme activity of PPO protein, a reaction mixture was prepared with the following composition (based on 10 ml): 50 mM Tris-Cl (pH 8.0); 50 mM NaCl; 0.04% (v/v) Tween 20; 40 mM glucose (0.072 g); 5 units glucose oxidase (16.6 mg); and 10 units catalase (1 μl).
(§4) Hundred and eighty microliters of a reaction mixture containing the purified PPO protein were placed in 96 well plates and 20 μl of […] were added. […] The reaction proceeded at room temperature for 30 min and the fluorescence of protoporphyrin IX was measured using Microplate reader (Sense, Hidex) (excitation: 405 nm; emission: 633 nm). […] To this, 2.7 N HCl was added, and the absorbance at 408 nm was measured. A standard curve was generated using standard protoporphyrin IX, and PPO activity was measured by calibration of protoporphyrin IX using the standard curve of protoporphyrin IX.

[3] = target: Thermosynechococcus sp. NK55a PPO CyPPO17 (SEQ ID NO: 3) variant V164C (MBP fusion); experiment: PPO enzyme inhibition (IC50), MBP-fused PPO; type: biochemical; conditions: 50 μM protoporphyrinogen IX, pH 8.0, room temperature, 30 min
Procedure: as §1, §2, §3, §4

[4] = target: Thermosynechococcus sp. NK55a PPO CyPPO17, wild type, SEQ ID NO: 3 (MBP fusion); experiment: PPO enzyme inhibition (IC50), MBP-fused PPO; type: biochemical; conditions: 50 μM protoporphyrinogen IX, pH 8.0, room temperature, 30 min
Procedure: as §1, §2, §3, §4

[5] = target: Thermosynechococcus sp. NK55a PPO CyPPO17 (SEQ ID NO: 3) variant A166L (MBP fusion); experiment: PPO enzyme inhibition (IC50), MBP-fused PPO; type: biochemical; conditions: 50 μM protoporphyrinogen IX, pH 8.0, room temperature, 30 min
Procedure: as §1, §2, §3, §4

[6] = target: Thermosynechococcus sp. NK55a PPO CyPPO17 (SEQ ID NO: 3) variant V304M (MBP fusion); experiment: PPO enzyme inhibition (IC50), MBP-fused PPO; type: biochemical; conditions: 50 μM protoporphyrinogen IX, pH 8.0, room temperature, 30 min
Procedure: as §1, §2, §3, §4

[7] = target: Thermosynechococcus sp. NK55a PPO CyPPO17 (SEQ ID NO: 3) variant R88A (MBP fusion); experiment: PPO enzyme inhibition (IC50), MBP-fused PPO; type: biochemical; conditions: 50 μM protoporphyrinogen IX, pH 8.0, room temperature, 30 min
Procedure: as §1, §2, §3, §4

[8] = target: Spirulina subsalsa PPO CyPPO16 (SEQ ID NO: 1) variant F156A (MBP fusion); experiment: PPO enzyme inhibition (IC50), MBP-fused PPO; type: biochemical; conditions: 50 μM protoporphyrinogen IX, pH 8.0, room temperature, 30 min
Procedure: as §1, §2
(§5) Since protoporphyrinogen IX, a substrate of PPO protein, was not commercially available, it was chemically synthesized in the laboratory. Overall process was performed in dark under nitrogen stream. […] of protoporphyrin IX was dissolved in 20 ml of 20% (v/v) EtOH, and stirred under dark condition for 30 minutes. The obtained protoporphyrin IX solution was put into a 15 ml screw tube in an amount of 800 μl, and flushed with nitrogen gas for 5 minutes. To this, 1.5 g of sodium amalgam was added and vigorously shaken for 2 minutes. The lid was opened to exhaust hydrogen gas in the tube. Thereafter, the lid was closed and incubated for 3 minutes. The protoporphyrinogen IX solution was filtered using syringe and cellulose membrane filter. […] To determine the enzyme activity of PPO protein, a reaction mixture was prepared with the following composition (based on 10 ml): 50 mM Tris-Cl (pH 8.0); 50 mM NaCl; 0.04% (v/v) Tween 20; 40 mM glucose (0.072 g); 5 units glucose oxidase (16.6 mg); and 10 units catalase (1 μl).
as §4

[9] = target: Spirulina subsalsa PPO CyPPO16 (SEQ ID NO: 1) variant F324V (MBP fusion); experiment: PPO enzyme inhibition (IC50), MBP-fused PPO; type: biochemical; conditions: 50 μM protoporphyrinogen IX, pH 8.0, room temperature, 30 min
Procedure: as §1, §2, §5, §4

[10] = target: Thermosynechococcus sp. NK55a PPO CyPPO17 (SEQ ID NO: 3) variant F323V (MBP fusion); experiment: PPO enzyme inhibition (IC50), MBP-fused PPO; type: biochemical; conditions: 50 μM protoporphyrinogen IX, pH 8.0, room temperature, 30 min
Procedure: as §1, §2, §5, §4

[11] = target: Spirulina subsalsa PPO CyPPO16 (SEQ ID NO: 1) variant R85A (MBP fusion); experiment: PPO enzyme inhibition (IC50), MBP-fused PPO; type: biochemical; conditions: 50 μM protoporphyrinogen IX, pH 8.0, room temperature, 30 min
Procedure: as §1, §2, §5, §4

[12] = target: Spirulina subsalsa PPO CyPPO16 (SEQ ID NO: 1) variant A162C (MBP fusion); experiment: PPO enzyme inhibition (IC50), MBP-fused PPO; type: biochemical; conditions: 50 μM protoporphyrinogen IX, pH 8.0, room temperature, 30 min
Procedure: as §1, §2, §5, §4

[13] = target: Thermosynechococcus sp. NK55a PPO CyPPO17 (SEQ ID NO: 3) variant A166C (MBP fusion); experiment: PPO enzyme inhibition (IC50), MBP-fused PPO; type: biochemical; conditions: 50 μM protoporphyrinogen IX, pH 8.0, room temperature, 30 min
Procedure: as §1, §2, §5, §4

[14] = target: Spirulina subsalsa PPO CyPPO16 (SEQ ID NO: 1) variant A162L (MBP fusion); experiment: PPO enzyme inhibition (IC50), MBP-fused PPO; type: biochemical; conditions: 50 μM protoporphyrinogen IX, pH 8.0, room temperature, 30 min
Procedure: as §1, §2, §5, §4

[15] = target: Spirulina subsalsa PPO CyPPO16 (SEQ ID NO: 1) variant V305M (MBP fusion); experiment: PPO enzyme inhibition (IC50), MBP-fused PPO; type: biochemical; conditions: 50 μM protoporphyrinogen IX, pH 8.0, room temperature, 30 min
Procedure: as §1, §2, §5, §4

[16] = target: Thermosynechococcus sp. NK55a PPO CyPPO17 (SEQ ID NO: 3) variant F160A (MBP fusion); experiment: PPO enzyme inhibition (IC50), MBP-fused PPO; type: biochemical; conditions: 50 μM protoporphyrinogen IX, pH 8.0, room temperature, 30 min
Procedure: as §1, §2, §5, §4

[17] = target: Spirulina subsalsa PPO CyPPO16 (SEQ ID NO: 1) variant V160C (MBP fusion); experiment: PPO enzyme inhibition (IC50), MBP-fused PPO; type: biochemical; conditions: 50 μM protoporphyrinogen IX, pH 8.0, room temperature, 30 min
Procedure: as §1, §2, §5, §4

[18] = target: Spirulina subsalsa PPO CyPPO16, wild type, SEQ ID NO: 1 (MBP fusion); experiment: PPO enzyme inhibition (IC50), MBP-fused PPO; type: biochemical; conditions: 50 μM protoporphyrinogen IX, pH 8.0, room temperature, 30 min
Procedure: as §1, §2, §5, §4

[19] = target: Spirulina subsalsa PPO CyPPO16 (SEQ ID NO: 1) variant L327T (MBP fusion); experiment: PPO enzyme inhibition (IC50), MBP-fused PPO; type: biochemical; conditions: 50 μM protoporphyrinogen IX, pH 8.0, room temperature, 30 min
Procedure: as §1, §2, §5, §4

`COC(=O)CCNC(=O)C(C)Sc1cc(-n2c(=O)cc(C(F)(F)F)n(C)c2=O)c(F)cc1Cl` (stereo not shown) [tiafenacil] was tested, and the “Plant damage after herbicide spray” value [1] was “no damage”, the pIC50 [2] was 6.71 and the pIC50 [3] was 7.06. The pIC50 [4] was 7.36, the pIC50 [5] was 5.95 and the pIC50 [6] was 6.99. The pIC50 [7] was 6.82, the pIC50 [8] was 7.22 and the pIC50 [9] was 6.99. It also gave a pIC50 [10] of 6.82, a pIC50 [11] of 6.92 and a pIC50 [12] of 7.10. The pIC50 [13] was 6.66, the pIC50 [14] was 6.71 and the pIC50 [15] was 7.37. It also gave a pIC50 [16] of 6.94, a pIC50 [17] of 7.35 and a pIC50 [18] of 7.59. The pIC50 [19] was 7.40.
